One compound from ChEMBL document CHEMBL3508693 (2016) can be followed below.

Data set [1] in a line: % aliskiren recovered as M1 in bile following single intravenous administration of 10 mg.Kg-1 [14C] aliskiren hemifumarate in male rat. The format is ADME, organism-based, HAN:WIST(SPF). Particulars: in vivo.
Data set [2] in a line: % aliskiren hemifumarate recovered as M1 in urine following single oral dose of 300 mg [14C]SPP100 studied in healthy men. In kind it is ADME, organism-based. Conditions: human, in vivo.
A short description of data set [3]: % aliskiren hemifumarate recovered as M1 in faeces following single oral dose of 300 mg [14C]SPP100 studied in healthy men. Particulars: human, in vivo, at 300 mg. The format is ADME, organism-based, Feces.
The nature of data set [4]: % aliskiren recovered as M1 of receiver rat following duodenal infusion of radioactivity through bile from donor rat treated with single intravenous administration of 10 mg.Kg-1 [14C] aliskiren hemifumarate. The format is ADME, organism-based, HAN:WIST(SPF). Conditions: in vivo.
Data set [5] can be described thus: % of radioactivity recovered as M1 in faeces following oral administration of [14C] aliskiren hemifumarate at 100 mg.Kg-1 level in rat. In kind it is ADME, organism-based, Albino HAN:WIST, Feces. Conditions: in vivo.
Data set [6] is described as follows: % of radioactivity recovered as M1 in urine following intravenous administration of [14C] aliskiren hemifumarate at 10 mg.Kg-1 level in rat. In kind it is ADME, organism-based, Albino HAN:WIST. Conditions: in vivo.
Data set [7] is described as follows: % of radioactivity recovered as M1 in faeces following intravenous administration of [14C] aliskiren hemifumarate at 10 mg.Kg-1 level in rat. Conditions: in vivo. In kind it is ADME, organism-based, Albino HAN:WIST, Feces.
Data set [8] in a line: % aliskiren recovered as M1 in urine following single intravenous administration of 10 mg.Kg-1 [14C] aliskiren hemifumarate in male rat. The format is ADME, organism-based, HAN:WIST(SPF). Conditions: in vivo.
A short description of data set [9]: % of radioactivity recovered as M1 in plasma following intravenous administration of [14C] aliskiren hemifumarate at 10 mg.Kg-1 level in rat. Particulars: in vivo. The format is ADME, organism-based, Albino HAN:WIST.
A short description of data set [10]: % of radioactivity recovered as M1 in urine following oral administration of [14C] aliskiren hemifumarate at 100 mg.Kg-1 level in rat. In kind it is ADME, organism-based, Albino HAN:WIST. Conditions: in vivo.
Data set [11] in a line: % of radioactivity recovered as M1 in plasma following oral administration of [14C] aliskiren hemifumarate at 100 mg.Kg-1 level in rat. The format is ADME, organism-based, Albino HAN:WIST. Conditions: in vivo.
Data set [12] can be described thus: % aliskiren recovered as M1 in hydrolysed following single intravenous administration of 10 mg.Kg-1 [14C] aliskiren hemifumarate in male rat. The format is ADME, organism-based, HAN:WIST(SPF), Bile. Particulars: in vivo.
Data set [13] is described as follows: % aliskiren hemifumarate recovered as M1 in urine and faeces following single oral dose of 300 mg [14C]SPP100 studied in healthy men. In kind it is ADME, organism-based, Urine/Feces. Particulars: human, in vivo, at 300 mg.

Regarding `COCCCOc1cc(C[C@@H](C[C@H](N)[C@@H](O)C[C@H](C(=O)NCC(C)(C)C(N)=O)C(C)C)C(C)C)ccc1O`, the Compound recovery is 1.3% in [1]; “OUTCOME = Not detected” in [2]; 0.1% in [3]; “OUTCOME = Not detected” in [4]; “<= 2%” in data set [5]; “<= 2%” in data set [6]. The Compound recovery is > 2% in data set [7]; 0.8% in data set [8]; “OUTCOME = Not detected or not investigated” in data set [9]; “<= 2%” in data set [10]; “OUTCOME = Not detected or not investigated” in data set [11]; 2.8% in data set [12]. The Compound recovery in [13] is reported as 0.1%.
